Starred links: 1 amine or outer side, 2 acyl side, 3 side chain; linkers in the order of their positions; H or OH if unused. Positions of bridges follow the written chain, without caps; N, C: chain ends. Non-standard residues stand in square brackets, D forms with d. Residues, ends and D or L forms follow the SMILES beside them. *: point of attachment. Arg(ψCOCO) = N=C(N)NCCC[C@H](N[*:1])C(=O)C(=O)[*:2]; X1 = O=C(/C=C/[C@H](Cc1ccc(O)cc1)N[*:1])[*:2]; aIle = CC[C@@H](C)[C@H](N)C(=O)O; Dap = NC[C@H](N)C(=O)O; PhAc = O=C(Cc1ccccc1)*
Columns and labels:
[1] = molecular target: Prothrombin (Homo sapiens, UniProt P00734); experiment: Inhibition of thrombin
[2] = Inhibition of trypsin

Row | SMILES | IC50 [1] [nM] | IC50 [2] [nM]
1 | CC[C@H](C)[C@H]1NC(=O)C(=O)[C@H](CCCNC(=N)N)NC(=O)[C@@H]2CCCN2C(=O)[C@@H](NC(=O)[C@H](C)NC(=O)c2ccccc2)CNC(=O)/C=C/[C@H](Cc2ccc(O)cc2)NC1=O [CYCLOTHEONAMIDE E2] | 13 | 55
2 | CC[C@H](C)[C@H]1NC(=O)C(=O)[C@H](CCCNC(=N)N)NC(=O)[C@@H]2CCCN2C(=O)[C@@H](NC(=O)[C@H](C)NC(=O)CC(C)C)CNC(=O)/C=C/[C@H](Cc2ccc(O)cc2)NC1=O [CYCLOTHEONAMIDE E3] | 9.5 | 52
3 | N=C(N)NCCC[C@@H]1NC(=O)[C@@H]2CCCN2C(=O)[C@@H](NC=O)CNC(=O)/C=C/[C@H](Cc2ccc(O)cc2)NC(=O)[C@@H](Cc2ccccc2)NC(=O)C1=O [CYCLOTHEONAMIDE A] | 23 | 16
4 | CC[C@@H](C)[C@@H]1NC(=O)C(=O)[C@H](CCCNC(=N)N)NC(=O)[C@@H]2CCCN2C(=O)[C@@H](NC(=O)[C@H](C)NC(=O)Cc2ccccc2)CNC(=O)/C=C/[C@H](Cc2ccc(O)cc2)NC1=O [CYCLOTHEONAMIDE E] (PhAc-A[Dap]P[Arg(ψCOCO)][aIle][X1]; lactam 2-C) | 2.9 | 30
